Values quoted from earlier work as cited in paper PMC9669016, “First-in-human phase Ia study of the PI3Kα inhibitor CYH33 in patients with solid tumors” (Nature Communications, 2022).
Converted amounts (≈) assume the structure as drawn. Read-outs that look alike come from different tables or passages of the source.

Tests used:
[1] = design: method as in Study Protocol CYH33-101 Table 2; conditions: ref Study Protocol CYH33-101 Table 2, cited from earlier work
[2] = tested on: more than 300 other kinases, including PIKK family; design: method as in Investigator's Brochure (IB) 12; conditions: ref Investigator's Brochure (IB) 12; cited from earlier work
[3] = tested on: KYSE510 human esophageal cancer xenograft; design: method as in Investigator's Brochure (IB) 12; conditions: 12.5 mg/kg oral for 21 days; ref Investigator's Brochure (IB) 12; cited from earlier work
[4] = design: method as in Investigator's Brochure (IB) 12; conditions: ref Investigator's Brochure (IB) 12, cited from earlier work; for absolute bioavailability: 1 mg/kg
[5] = design: method as in Investigator's Brochure (IB) 12; conditions: human, without concentration dependency; ref Investigator's Brochure (IB) 12; cited from earlier work
[6] = tested on: CYP2B6; design: method as in Investigator's Brochure (IB) 12; conditions: up to 100 µM; ref Investigator's Brochure (IB) 12; cited from earlier work
[7] = tested on: CYP3A4; design: method as in Investigator's Brochure (IB) 12; conditions: up to 100 µM; ref Investigator's Brochure (IB) 12; cited from earlier work
[8] = tested on: human hepatocytes; design: method as in Investigator's Brochure (IB) 12; conditions: ref Investigator's Brochure (IB) 12; cited from earlier work
[9] = tested on: SD rats; design: method as in Investigator's Brochure (IB) 12; conditions: ref Investigator's Brochure (IB) 12; cited from earlier work
[10] = tested on: Beagle dogs; design: method as in Investigator's Brochure (IB) 12; conditions: ref Investigator's Brochure (IB) 12; cited from earlier work
[11] = tested on: SD rats; design: method as in Investigator's Brochure (IB) 12; conditions: long-term, ref Investigator's Brochure (IB) 12, cited from earlier work
[12] = tested on: Beagle dogs; design: method as in Investigator's Brochure (IB) 12; conditions: long-term, ref Investigator's Brochure (IB) 12; cited from earlier work
[13] = tested on: mice bone marrow; design: method as in Investigator's Brochure (IB) 12; conditions: ref Investigator's Brochure (IB) 12; cited from earlier work

SMILES: COC(=O)Nc1cc(C(F)(F)F)c(-c2nc(N3CCOCC3)c3cc(CN4CCN(S(C)(=O)=O)CC4)cn3n2)cn1 [CYH33, methyl (5-(6-((4-(methylsulfonyl)piperazin-1-yl)methyl)−4-morpholinopyrrolo[2,1-f][1,2,4]triazin-2-yl)−4-(trifluoromethyl)pyridin-2-yl)carbamate]
- Solubility ([1]; in H2O): 1210 µg/mL (≈ 2020 µM)
- Solubility, pH dependent ([1]; pH <3): High solubility at pH <3
- effects on more than 300 other kinases, including other PIKK family members [2]: slight
- T/C ratio [3]: approximately 30%
- absolute bioavailability ([4]; female rats): 53.7%
- plasma clearance CL ([4]; female rats): 34.0 mL/min/kg
- t1/2 ([4]; female rats): 6.7 h
- exposure AUC0-t in female rats relative to male rats ([4]; intragastric administration): more than 12 times
- absolute bioavailability ([4]; male rats): 19.0%
- plasma clearance CL ([4]; male rats): 4.83 mL/min/kg
- t1/2 ([4]; male rats): 1.3 to 4.5 h
- Vss, steady-state volume of distribution ([4]; rats): 1.96 L/kg
- accumulation after continuous administration for 7 days ([4]; rats): not significant
- plasma protein binding (PPB) [5]: 94.9%
- inhibition of CYP2B6 [6]: did not inhibit
- inhibition of CYP3A4 [7]: did not inhibit
- oxidative metabolites in human hepatocytes [8]: not detected
- MTD, acute toxicity [9]: ≥ 600 mg/kg
- maximum tolerated dose (MTD), acute toxicity [10]: > 120 mg/kg
- highest non-severely toxic dose (HNSTD) ([11]; female SD rats): 3 mg/kg
- highest non-severely toxic dose (HNSTD) ([11]; male SD rats): 8 mg/kg
- highest non-severely toxic dose (HNSTD) [12]: 0.2 mg/kg
- mice bone marrow micronucleus test result [13]: negative
